Assays:
[1] = xn = mol fraction of the nth substance listed; details: 101 kPa, Liquid
[2] = 101 kPa, Liquid

C1CCNCC1 [piperidine] + O
speed of sound [m/s], [1]
Details	293 K	303 K	313 K	323 K
x1 = 0.006	1506.5	1528.7	1544.8	1555.1
x1 = 0.011	1531.1	1548.7	1560.4	1566.8
x1 = 0.028	1590.1	1588.3	1584.5	1578.3
x1 = 0.057	1596.3	1587.1	1576	1562.7
x1 = 0.099	1593.6	1576.5	1557.5	1536.6
x1 = 0.18	1575.4	1547.9	1519.2	1489.3
x1 = 0.267	1550.2	1517.2	1483.5	1449
x1 = 0.354	1525.1	1489.1	1452.5	1415.4
x1 = 0.439	1499.8	1461.1	1424	1384.9
x1 = 0.523	1477	1438	1398.6	1358.9
x1 = 0.646	1445.3	1405.2	1364.8	1324.2
x1 = 0.846	1406.2	1365.1	1323.6	1282
x1 = 1	1384.4	1342.3	1299.9	1257.4

C1CCNCC1 [piperidine]
[2]
Details	speed of sound [m/s]
293 K	1384.4
303 K	1342.3
313 K	1299.9
323 K	1257.4

O [water] + C1CCNCC1
Details	speed of sound [m/s]
[1], 313 K, x2 = 0	1529

C1CCNC1 [pyrrolidine] + O
speed of sound [m/s], [1]
Details	293 K	303 K	313 K	323 K
x1 = 0.006	1501.6	1525.2	1541.5	1552.2
x1 = 0.01	1517.1	1537.1	1551.1	1559.7
x1 = 0.022	1557.9	1569.8	1576.6	1578.7
x1 = 0.068	1650.5	1635.1	1619.3	1602.3
x1 = 0.116	1654.8	1631.8	1608	1583.2
x1 = 0.208	1626.3	1596.4	1565.5	1533.5
x1 = 0.304	1589.8	1555.3	1520	1483.9
x1 = 0.396	1556.7	1519.5	1481.6	1443
x1 = 0.483	1528.8	1489.9	1450.5	1410.5
x1 = 0.567	1500.3	1458.9	1422.2	1377.7
x1 = 0.686	1467.5	1426.8	1385.6	1344
x1 = 0.868	1416.6	1375.5	1333.8	1291.7
x1 = 1	1389.4	1348	1305.8	1263

C1CCNC1 [pyrrolidine]
[2]
Details	speed of sound [m/s]
293 K	1389.4
303 K	1348
313 K	1305.8
323 K	1263

O [water] + C1CCNC1
Details	speed of sound [m/s]
[1], 313 K, x2 = 0	1529
